Entries after “also recorded” stand apart in the source; their conditions may differ.
What was measured:
[1] = system: Caco-2 cells; experiment: Caco-2 cell permeability and efflux; format: in vitro ADME, human; conditions: for Efflux Ratio: Caco-2; for % Recovery (A-B): Caco-2, A-B direction; for % Recovery (B-A): Caco-2, B-A direction; for Pe (A-B): Caco-2, apical to basolateral; for Pe (B-A): Caco-2, basolateral to apical
[2] = system: mice; experiment: Toxicity observation in the PK study; format: in vivo; conditions: 1 mg/kg i.v., 1 mg/kg
[3] = target: human immunoproteasome (i20S) β5 (Homo sapiens, UniProt P20618+P28062); experiment: Proteasome subunit inhibition, i20S β5; format: biochemical; conditions: read-out: i20S β5 IC50 ± SD; read 60 to 90 minutes after start
[4] = Liver microsomal stability; conditions: mouse liver microsomes
[5] = target: human immunoproteasome (i20S) β2 (Homo sapiens, UniProt P40306+P49720); experiment: Proteasome subunit inhibition, i20S β2; format: biochemical; conditions: read-out: i20S β2 IC50 ± SD; read 60 to 90 minutes after start
[6] = system: SF188 cell line; experiment: Cytotoxicity against SF188 cells; format: cell-based, human; conditions: read-out: SF188 IC50; glioblastoma cell line
[7] = target: human immunoproteasome (i20S) β1 (Homo sapiens, UniProt P28065+P40306); experiment: Proteasome subunit inhibition, i20S β1; format: biochemical; conditions: read-out: i20S β1 IC50 ± SD; read 60 to 90 minutes after start
[8] = In vivo pharmacokinetics, plasma and brain; set-up: species or system Male C57BL/6 mice; conditions: mice, 1 mg/kg i.v.
[9] = system: D283-med cell line; experiment: Cytotoxicity against D283-med cells; format: cell-based, human; conditions: read-out: D283-med IC50; medulloblastoma cell line
[10] = PAMPA-BBB permeability assay; conditions: PAMPA-BBB
[11] = system: H460 cell line; experiment: Cytotoxicity against H460 cells; format: cell-based; conditions: read-out: H460 IC50; non-small cell lung cancer cell line
[12] = Plasma stability; format: in vitro ADME; conditions: mouse plasma
[13] = system: human foreskin fibroblasts (HFF-1) cell line; experiment: Cytotoxicity against HFF-1 cells; format: cell-based; conditions: read-out: HFF-1 IC50; non-cancerous fibroblasts

SMILES	Efflux Ratio [1]	% Recovery (A-B) [1] [%]	% Recovery (B-A) [1] [%]	Pe (A-B) [1]	Pe (B-A) [1]	IC50 [3] [µM]	Microsomal Stability Clearance Category [4]	Microsomal Stability mCLint [4] [µL/min/mg]	IC50 [5] [µM]	IC50 [6] [µM]	IC50 [7] [µM]	IC50 [9] [µM]	% Recovery [10] [%]	Mean Permeability [10]	IC50 [11] [µM]	Plasma Stability % remaining ([12]; after 2 hr) [after 2 hr %]	other results
CC(C)C[C@H](NC(=O)[C@@H]1Cc2c(F)c(F)c(c(F)c2F)Sc2cccc(c2)CC(=O)N[C@@H](C(C)C)C(=O)N1)C(=O)[C@@]1(C)CO1 [Compound 10, (5S,8S)-3^2,3^3,3^5,3^6-Tetrafluoro-8-isopropyl-N-((S)-4-methyl-1-((R)-2-methyloxiran-2-yl)-1-oxopentan-2-yl)-7,10-dioxo-2-thia-6,9-diaza-1(1,3),3(1,4)-dibenzenacycloundecaphane-5-carboxamide]	1.4	83	75	25.1 10^−6 cm/sec	34.4 10^−6 cm/sec	0.532 ± 0.0569	High	202	0.464 ± 0.0501	0.123 ± 0.008	0.163 ± 0.0149	0.017 ± 0.007	49	3.48 10^−6 cm/sec	2.59	98	Signs of toxicity [2]: no signs of toxicity were observed; also recorded: lack of toxicity; Mean B/P ratio ([8]; 1.0 h): 0.78; Mean Brain Con ([8]; 1.0 h): 12.0 ng/g; Mean Plasma Conc. ([8]; 1.0 h): 0.0168 µg/mL; Mean Plasma Conc. ([8]; 4.0 h): 0.0054 µg/mL; Mean Brain Con ([8]; 4.0 h, LLOQ 2.00 ng/mL, 1 mg/kg): below the limit of quantification and BLQ; Plasma Cmax ([8]; earliest time point): 0.423 µg/mL; Pe (effective permeability) [10]: around 4 10^−6 cm s^−1; Plasma Stability % remaining ([12]; after 5 hr): more than 75%
CC(C)C[C@H](NC(=O)[C@@H]1Cc2c(F)c(F)c(c(F)c2F)Sc2cccc(c2)CC(=O)NC(C)(C)C(=O)N1)C(=O)[C@@]1(C)CO1 [Compound 31, (S)-3^2,3^3,3^5,3^6-Tetrafluoro-8,8-dimethyl-N-((S)-4-methyl-1-((R)-2-methyloxiran-2-yl)-1-oxopentan-2-yl)-7,10-dioxo-2-thia-6,9-diaza-1(1,3),3(1,4)-dibenzenacycloundecaphane-5-carboxamide]	17.6	94	73	3.6 10^−6 cm/sec	63.0 10^−6 cm/sec	0.763 ± 0.199	High	182	1.06 ± 0.121	0.024 ± 0.009	0.207 ± 0.0143	0.057 ± 0.014	64	3.70 10^−6 cm/sec	0.175 ± 0.016	81	Microsomal Stability t1/2 [4]: 8 min; IC50 [13]: 0.122 ± 0.014 µM
